In one assay the test system is MDA-MB-231/HER2 cells. The assay is described as follows: In vitro association study (flow cytometry, Cy5), MDA-MB-231/HER2. Particulars: MDA-MB-231/HER2, 3.33 nM. It is filed as cell-based, human. The method, then:
(§1) MDA-MB-231, MDA-MB-231/HER2 (HER2 knock in) (as described above), or SKOV-3 cells were seeded in a 24-well plate (1×10^5 cells per well) in 500 μL of appropriate growth media with the addition of 10% (v/v) fetal bovine serum (FBS) and incubated with compound 36 or 41 at 3.33 nM, […] atmosphere. After incubation, non-binding/non-associating particles were removed from adherent cells by gently washing with DPBS three times (300 μL/well). Cells were removed from plates by treatment with TrypLE™ Express Enzyme (1×), no phenol red (150 μL/well) for 5-10 min at room temperature. The plates were then placed on ice. Cellular binding and association of sample were then determined through flow cytometry by the acquisition of the signal from Cy5.

In assay [1] the test system is MDA-MB-231 cells. The assay can be described thus: In vitro association study (flow cytometry, Cy5), MDA-MB-231. It is filed as cell-based, human. Particulars: MDA-MB-231, 3.33 nM, in words. The method, then: as §1
The next assay deals with SKOV-3 cells. The assay can be described thus: In vitro association study (flow cytometry, Cy5), SKOV-3. It is filed as cell-based, human. Particulars: SKOV-3, 3.33 nM. The protocol: MDA-MB-231, MDA-MB-231/HER2 (HER2 knock in) (as described above), or SKOV-3 cells were seeded in a 24-well plate (1×10^5 cells per well) in 500 μL of appropriate growth media with the addition of 10% (v/v) fetal bovine serum (FBS) and incubated with compound 36 or 41 at 3.33 nM, with incubation time varied from 1 to 24 h at 37° C. in a 5% CO2 humidified atmosphere. After incubation, non-binding/non-associating particles were removed from adherent cells by gently washing with DPBS three times (300 μL/well). Cells were removed from plates by treatment with TrypLE™ Express Enzyme (1×), no phenol red (150 μL/well) for 5-10 min at room temperature. The plates were then placed on ice. Cellular binding and association of sample were then determined through flow cytometry by the acquisition of the signal from Cy5.
(Flow cytometry measures light scatter and fluorescence of single cells or particles in a stream.)

In assay [2] the test system is MDA-MB-231 cells. The assay can be described thus: Confocal cellular uptake, MDA-MB-231. It counts as cell-based, human. Particulars: MDA-MB-231, 3.33 nM, 24 h. The protocol: MDA-MB-231, MDA-MB-231/HER2 and SKOV-3 cells were plated at 1.0×10^4 cells per well into μ-slide 8 well chambered coverslip (ibidi) and allowed to adhere overnight at 37° C., 5% CO2. compounds 36 and 41 (3.33 nM) were then added and allowed to incubate for 1, 3, 6 and 24 hrs. The cells were washed and then fixed with 1% paraformaldehyde for 20 min at room temperature. The cell membrane was stained with Alexa Fluor 488-wheat germ agglutinin (AF488-WGA, 5 μg mL^−1) in DPBS at room temperature for 10 min. The cell nuclei were counterstained with 4′,6-diamidino-2-phenylindole (DAPI, 2 μg mL^−1) in DPBS at room temperature for 10 min. Fluorescence images and optical sections were collected using a confocal microscope (Leica SP8). Images were processed with Fiji (Image J 1.52n).

The target of the next assay is T1, ErbB2-ECD (Homo sapiens, UniProt P04626).
T1 construct: Direct Immobilization of ErbB2-ECD
The assay can be described thus: SPR binding to immobilized ErbB2-ECD. Particulars: result in words. The protocol: Using a ProteOn XPR36 instrument, ErbB2-ECD was immobilized at 25° C. onto a GLC sensor chip surface (Bio-Rad), with HBS-P+ running buffer (10 mM HEPES, pH 7.4, 150 mM NaCl, 0.05% Tween 20). Standard amine coupling methodology described in Bio-Rad's amine coupling kit was utilized for this immobilization. Lane 1 was activated with a 50:50 mixture of EDC (0.5 mM) and sulfo-NHS (0.125 mM). ErbB2 protein was diluted to […] in 10 mM sodium acetate, pH 5.0 and injected over the activated surface channel. Any remaining activated sites were blocked with 1 M ethanolamine-HCl, pH 8.5.
All SPR binding experiments were performed at 25° C. using HBS-EP+/BSA (10 mM HEPES, pH 7.4, 150 mM NaCl, 3 mM EDTA, 0.05% Tween20, 0.1 mg/ml BSA) as the instrument running buffer (RB). Following immobilization procedures, various concentrations of anti-ErbB2 affibodies and their MMAE-dendrimer conjugates were injected at 60 μl/min over immobilized ErbB2 proteins and their association monitored for 90 sec. Running buffer was subsequently injected over bound Ab-ErbB2 complexes and dissociation monitored for up to 60 min. […] All binding measurements were performed in triplicate.
Collected experimental data were processed using Scrubber-Pro software (www.biologic.com.au). […]

As for “(MeTzPh)PEG4CO-NHPEG24CO—[N(PN)2][Lys]8[((α-NH-Cy5)1-4(α-NH-Glu-Val-Cit-PAB-MMAE)4-7)(ε-NH-COPEG1100)8] [Compound 36]”, the Mean fluorescence intensity turned out to be 16.05±1.89 with MDA-MB-231/HER2 cells (24 h, 37° C.) and 16.4±6.86 with SKOV-3 cells (24 h, 37° C.). In addition, the “binding over 24 h” value with MDA-MB-231/HER2 cells (in words), with MDA-MB-231 cells [1] and in the assay on SKOV-3 cells (in words) was “minimal binding” in each case. Further, the “association with cells (confocal)” value with MDA-MB-231 cells [2] is on record as “little”.
On to “Azido-PEG24CO—[N(PN)2][Lys]8[(α-NH-Glu-Val-Cit-PAB-MMAE)8(ε-NH-COPEG1100)8] [Compound 20]”, for which the “binding to ErbB2” value on ErbB2-ECD is “No binding”.

Source of the values: US12653896B2, “Targeted dendrimer conjugates” (Starpharma Pty Ltd, priority 2019, dated 2026).
